In patent US9211278B2, “Composition containing arylnaphthalene lignan derivative for preventing and/or treating dementia” (KOREA INSTITUTE OF SCIENCE AND TECHNOLOGY, priority 2012, dated 2015):

Columns and labels:
[1] = tested on: alpha-secretase product (sAPPα); experiment: Alpha-secretase product (sAPPα) production, Western blotting; type: cell-based, human; details: 8 hours, concentrations of FIG. 5
Method: The test result confirmed that Justicidin A (C1) obtained in Example 2 and 5-methoxyJusticidin A increased alpha-secretase product (sAPPα). Specifically, the produced amount of sAPPα was measured by treating the cultured cell line (the HeLa cell line transfected with the amyloid precursor protein (APP) driven from human) with Justicidin A (S62-C1) or 5-methoxyJusticitdin A (S62-C2) at a concentration of FIG. 5, culturing it for 8 hours, and measuring the produced amount of sAPPα according to the Western blotting. The negative control was the group with no treatment of Justicidin A or 5-methoxyJusticidin A.

Aβ42 = target: T1, Aβ42 (Homo sapiens, UniProt P05067); experiment: Aβ fibril formation, Thioflavin T (ThT) fluorescence assay; type: biochemical
T1 construct: Aβ42 of 42 amino acids
T1 sequence (P05067 672-713 limits assumed): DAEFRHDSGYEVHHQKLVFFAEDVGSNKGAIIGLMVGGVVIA
Method: Fibril formation by concentrated Aβ is Alzheimer's representative symptom and has been focused on recently. The concentrated Aβ was measured by Thioflavin T (ThT) fluorescence assay, as chemical process was artificially generated.
For formation of Aβ fibril, Aβ42 was melt in 1,1,1,3,3,3-hexafluoro-2-propanol (HFIP) up to 1 mg/ml, then injected to 96-well plate, the concentration of Aβ42 was 10 uM each well, HFIP was evaporated shortly before the beginning of the experiment. Various concentrations of Justicidin A and a certain amount of 5 uM ThT were added, and Fluorescence intensity was measured at various times by Tecan infinite M1000 microplate reader (Tecan, Switzerland).

COc1cc2c(OC)c3c(c(-c4ccc5c(c4)OCO5)c2cc1OC)C(=O)OC3 [Justicidin A]
formation of alpha-secretase product (sAPPα) [1]: activated the formation of alpha-secretase product (sAPPα)
inhibition at 5 µM (Aβ42; 5 uM, read-out: inhibition of formation of Aβ fibril compared to the control group): 52%
inhibition of formation of Aβ fibril (Aβ42; various concentrations, up to 36 hrs): inhibited the formation of Aβ fibril in a concentration-dependent manner
